Columns and labels:
[1] = target: T1, chitin synthase 2 of Saccharomyces cerevisiae ECY38-38A(pAS6) (Saccharomyces cerevisiae, UniProt P14180); assay: In vitro enzyme assay for chitin synthase 2 of Saccharomyces cerevisiae (enzyme 2); type: biochemical; settings: relative to polyoxin D (50% inhibitory activity = value 5)
T1 construct: made in house; host or cells: Saccharomyces cerevisiae ECY38-38A (chs1-23 chs2::LEU2 cal1/csd2) carrying plasmid pAS6, grown in galactose medium; 130,000 x g membrane pellet
Description: Crude enzyme was prepared using the recombinant Saccharomyces cerevisiae ECY38-38A(pAS6) (MATa chs1-23 chs2::LEU2 cal 1/csd 2 ura 3-52 trp 1-1 leu 2-2 pAS6) strain, which can produce the chitin synthase 2 only. The strain was inoculated with the YPG culture medium (1% yeast extract, 2% peptone, 2% galactose) and cultured at 30° C. overnight. Then, it was inoculated with a fresh YPG culture medium and cultured for 15-17 hours until the Absorbance at 550 nm reaches 1.0. The cells were collected and suspended in 50 mM Tris-HCl (pH 7.5) buffer containing 5 mM magnesium acetate. After centrifugation at 8,000×g for 10 minutes, the pellets were suspended in the same Tris-HCl buffer solution. The suspension was divided into aliquots in 50 mL conical test tubes. After adding the glass beads, the cells were disrupted by vigorously vortexing with an interval of 30 seconds. The cell residues were removed by centrifuging at 3,000×g for 5 minutes. The supernatant was ultra-centrifuged at 130,000×g for 1 hour. The resultant pellets were collected and suspended in 50 mM Tris-HCl (pH 7.5) containing 33% glycerol, to a final volume of 1.6 mg/g (wet weight) of yeast used. The suspension was divided into aliquots and kept at −70° C. until it is used.
(§1) The inhibitory activities against the chitin synthase 1 of Candida albicans chs2 Δ chs 3 Δ (abbreviated as ‘enzyme 1’) and the chitin synthase 2 of Saccharomyces cerevisiae ECY38-38A(pAS6)(abbreviated as ‘enzyme 2’) was examined for compound Nos. 1 to 70 compound and polyoxin D, a positive control compound.
(§2) The inhibitory activity against the chitin synthase 1 prepared from Candida albicans and the chitin synthase 2 prepared from Saccharomyces cerevisiae were examined as follows. A reaction mixture containing 32 mM Tris-HCl (pH 7.5), 2 mM cobalt acetate, 1.1 mM UDP-[U-^14C]-N-acetyl-d-glucosamine (GlcNAc) (400,000 cpm/μmol), 2 μL of trypsin (0.75 mg/mL), 20 μL of each crude enzyme and 14 μL of each test sample was kept at 30° C. for 15 minutes to activate the enzyme. Then, 2 μL of trypsin inhibitor (1.5 mg/mL) was added and the mixture was kept in an ice bath for 10 minutes to deactivate trypsin. 2 μL of 0.8 M N-acetyl-d-glucosamine was added to a total volume of 50 μL and reaction was performed at 30° C. for 90 minutes. The reaction was stopped using 1 mL of 10% TCA solution and the reaction solution was filtered with a GF/C filter and dried at room temperature. After adding 3 mL of a scintillation cocktail solution, the amount of isotopes was measured using a liquid scintillation counter. Percentage inhibition against each enzyme was calculated by the following Equation 1.
(§3) The control group was not added with a test sample in the reaction mixture and that of the untreated group contained neither the test sample nor the crude enzyme.
(§4) A 50% inhibitory activity of polyoxin D against the enzyme was given the value 5. A compound having the same inhibitory activity as that of polyoxin D at the same concentration was given the value 5. Compounds having the inhibitory activity at 2-fold, 4-fold, 8-fold and 16-fold higher concentrations than that of polyoxin D were given the values of 4, 3, 2 and 1, respectively. On the other hand, compounds having the inhibitory activity at ½, ¼ and ⅛ lower concentrations than that of polyoxin D were given the values of 6, 7 and 8, respectively.

[2] = target: T2, chitin synthase 1 of Candida albicans chs2 Δ chs 3 Δ (Candida albicans, UniProt P23316); assay: In vitro enzyme assay for chitin synthase 1 of Candida albicans (enzyme 1); type: biochemical; settings: relative to polyoxin D (50% inhibitory activity = value 5)
T2 construct: Crude enzyme was prepared using the Candida albicans chs2 Δ chs 3 Δ mutant; endogenous in cells; host or cells: Candida albicans chs2Δ/chs2Δ chs3Δ/chs3Δ mutant; 130,000 x g membrane pellet
Description: Crude enzyme was prepared using the Candida albicans chs2 Δ chs 3 Δ mutant (chs2 Δ::hisG/chs2 Δ::hisG chs3 Δ::hisG/chs3 Δ::hisG) strain, which can only produce the chitin synthase 1. The strain was inoculated with the SDA (Sabouraud dextrose agar) culture medium (4% dextrose, 1% peptone, pH 5.6) and cultured at 30° C. for 15-17 hours until the absorbance at 550nm reaches 0.7. The cells were collected and suspended in a 50 mM Tris-HCl (pH 7.5) buffer solution containing 5 mM magnesium acetate. After centrifugation at 8,000×g for 10 minutes, the pellets were suspended in the same Tris-HCl buffer solution. The suspension was divided into aliquots in 50 mL conical test tubes. After adding glass beads, the cells were disrupted by vigorously vortexing with an interval of 30 seconds. The cell residues were removed by centrifuging at 3,000×g for 5 minutes. The supernatant was ultra-centrifuged at 130,000×g for 1 hour. The resultant pellets were collected and suspended in 50 mM Tris-HCl (pH 7.5) containing 33% glycerol, to a final volume of 1.6 mg/g (wet weight) of yeast used. The suspension was divided into aliquots and kept at −70° C. until it is used.
as §1, §2, §3, §4

T2 sequence (P23316 whole entry, stated change not applied): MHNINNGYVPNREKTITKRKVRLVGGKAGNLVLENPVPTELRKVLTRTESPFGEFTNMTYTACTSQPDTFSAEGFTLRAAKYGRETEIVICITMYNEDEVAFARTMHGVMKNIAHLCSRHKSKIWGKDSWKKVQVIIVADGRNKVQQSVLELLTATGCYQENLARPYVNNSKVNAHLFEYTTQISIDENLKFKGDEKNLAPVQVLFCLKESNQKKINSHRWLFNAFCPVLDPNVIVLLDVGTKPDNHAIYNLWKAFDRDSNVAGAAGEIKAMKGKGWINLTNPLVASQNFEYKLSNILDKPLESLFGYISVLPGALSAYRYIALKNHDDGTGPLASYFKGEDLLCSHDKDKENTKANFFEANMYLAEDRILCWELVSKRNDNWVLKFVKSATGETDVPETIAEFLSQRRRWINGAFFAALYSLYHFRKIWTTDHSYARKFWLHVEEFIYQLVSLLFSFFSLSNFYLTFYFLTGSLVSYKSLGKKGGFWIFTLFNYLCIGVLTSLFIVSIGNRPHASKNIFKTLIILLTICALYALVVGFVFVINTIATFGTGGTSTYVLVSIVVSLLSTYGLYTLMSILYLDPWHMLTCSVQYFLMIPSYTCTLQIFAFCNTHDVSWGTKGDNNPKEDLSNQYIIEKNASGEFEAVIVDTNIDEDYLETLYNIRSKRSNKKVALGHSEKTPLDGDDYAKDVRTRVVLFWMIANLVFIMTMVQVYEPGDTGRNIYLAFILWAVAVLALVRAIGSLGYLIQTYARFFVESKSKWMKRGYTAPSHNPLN
T1 sequence (P14180 whole entry): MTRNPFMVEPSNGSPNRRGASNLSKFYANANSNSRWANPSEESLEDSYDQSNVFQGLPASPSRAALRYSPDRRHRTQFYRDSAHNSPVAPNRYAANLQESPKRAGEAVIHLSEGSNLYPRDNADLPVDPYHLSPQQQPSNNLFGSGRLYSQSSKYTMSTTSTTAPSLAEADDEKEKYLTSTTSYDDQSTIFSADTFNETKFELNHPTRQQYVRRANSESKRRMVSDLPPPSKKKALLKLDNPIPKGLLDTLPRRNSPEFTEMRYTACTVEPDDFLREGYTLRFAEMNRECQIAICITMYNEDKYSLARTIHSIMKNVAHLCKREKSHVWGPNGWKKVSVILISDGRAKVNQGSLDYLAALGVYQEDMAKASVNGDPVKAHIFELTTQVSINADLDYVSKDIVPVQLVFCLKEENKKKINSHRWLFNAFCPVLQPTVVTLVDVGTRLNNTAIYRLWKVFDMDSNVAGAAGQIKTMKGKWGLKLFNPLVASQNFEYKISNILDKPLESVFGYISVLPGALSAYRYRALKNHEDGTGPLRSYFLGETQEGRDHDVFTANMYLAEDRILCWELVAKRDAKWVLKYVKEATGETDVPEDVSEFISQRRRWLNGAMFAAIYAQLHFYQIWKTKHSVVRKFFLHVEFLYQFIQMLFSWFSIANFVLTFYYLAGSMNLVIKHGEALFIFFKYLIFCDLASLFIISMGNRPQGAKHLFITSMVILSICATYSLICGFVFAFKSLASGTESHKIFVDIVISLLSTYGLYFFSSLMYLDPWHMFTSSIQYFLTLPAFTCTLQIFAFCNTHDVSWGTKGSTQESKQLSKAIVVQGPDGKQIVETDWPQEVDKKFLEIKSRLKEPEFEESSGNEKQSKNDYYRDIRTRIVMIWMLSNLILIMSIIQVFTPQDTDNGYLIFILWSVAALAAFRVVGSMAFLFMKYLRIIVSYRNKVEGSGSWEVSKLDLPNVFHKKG

Compound	Relative activity Enzyme 2 [1]	Relative activity Enzyme 1 [2]
13-(3,4,5-Trimethoxybenzyl)-9-O-butylberberrubine chloride [Compound No. 62]	5 (A compound having the same inhibitory activity as that of polyoxin D at the same concentration was given the value 5)	2 (Compounds having the inhibitory activity at 2-fold, 4-fold, 8-fold and 16-fold higher concentrations than that of polyoxin D were given the values of 4, 3, 2 and 1, respectively)
13-(4-Trifluoromethylbenzyl)-9-O-butylberberrubine chloride [Compound No. 68]	6 (compounds having the inhibitory activity at ½, ¼ and ⅛ lower concentrations than that of polyoxin D were given the values of 6, 7 and 8, respectively)	3 (Compounds having the inhibitory activity at 2-fold, 4-fold, 8-fold and 16-fold higher concentrations than that of polyoxin D were given the values of 4, 3, 2 and 1, respectively)
13-(4-Trifluoromethylbenzyl)-9-O-hexylberberrubine iodide [Compound No. 37]	5 (A compound having the same inhibitory activity as that of polyoxin D at the same concentration was given the value 5)	2 (Compounds having the inhibitory activity at 2-fold, 4-fold, 8-fold and 16-fold higher concentrations than that of polyoxin D were given the values of 4, 3, 2 and 1, respectively)
COc1ccc2c(Cc3ccc(C(OC)(OC)OC)cc3)c3[n+](cc2c1OC)CCc1cc2c(cc1-3)OCO2.[Cl-] [Comparative compound 3, reference compound]	1 (Compounds having the inhibitory activity at 2-fold, 4-fold, 8-fold and 16-fold higher concentrations than that of polyoxin D were given the values of 4, 3, 2 and 1, respectively)	<1 (Compounds having the inhibitory activity at 2-fold, 4-fold, 8-fold and 16-fold higher concentrations than that of polyoxin D were given the values of 4, 3, 2 and 1, respectively)
13-(3,4,5-Trifluorobenzyl)-9-O-hexylberberrubine chloride [Compound No. 60]	5 (A compound having the same inhibitory activity as that of polyoxin D at the same concentration was given the value 5)	2 (Compounds having the inhibitory activity at 2-fold, 4-fold, 8-fold and 16-fold higher concentrations than that of polyoxin D were given the values of 4, 3, 2 and 1, respectively)
13-(3,4,5-trimethoxybenzyl)-9-O-butylberberrubine iodide [Compound No. 30]	5 (A compound having the same inhibitory activity as that of polyoxin D at the same concentration was given the value 5)	2 (Compounds having the inhibitory activity at 2-fold, 4-fold, 8-fold and 16-fold higher concentrations than that of polyoxin D were given the values of 4, 3, 2 and 1, respectively)
13-(4-tert-Butylbenzyl)berberrubine [Compound No. 5]	4 (Compounds having the inhibitory activity at 2-fold, 4-fold, 8-fold and 16-fold higher concentrations than that of polyoxin D were given the values of 4, 3, 2 and 1, respectively)	2 (Compounds having the inhibitory activity at 2-fold, 4-fold, 8-fold and 16-fold higher concentrations than that of polyoxin D were given the values of 4, 3, 2 and 1, respectively)
13-(4-Isopropylbenzyl)berberrubine [Compound No. 6]	4 (Compounds having the inhibitory activity at 2-fold, 4-fold, 8-fold and 16-fold higher concentrations than that of polyoxin D were given the values of 4, 3, 2 and 1, respectively)	2 (Compounds having the inhibitory activity at 2-fold, 4-fold, 8-fold and 16-fold higher concentrations than that of polyoxin D were given the values of 4, 3, 2 and 1, respectively)
13-(4-Trifluoromethylbenzyl)-9-O-hexylberberrubine chloride [Compound No. 69]	5 (A compound having the same inhibitory activity as that of polyoxin D at the same concentration was given the value 5)	3 (Compounds having the inhibitory activity at 2-fold, 4-fold, 8-fold and 16-fold higher concentrations than that of polyoxin D were given the values of 4, 3, 2 and 1, respectively)
13-(4-Trifluoromethylbenzyl)berberrubine [Compound No. 4]	3 (Compounds having the inhibitory activity at 2-fold, 4-fold, 8-fold and 16-fold higher concentrations than that of polyoxin D were given the values of 4, 3, 2 and 1, respectively)	1 (Compounds having the inhibitory activity at 2-fold, 4-fold, 8-fold and 16-fold higher concentrations than that of polyoxin D were given the values of 4, 3, 2 and 1, respectively)
13-(4-Trifluoromethoxybenzyl)-9-O-butylberberrubine chloride [Compound No. 65]	6 (compounds having the inhibitory activity at ½, ¼ and ⅛ lower concentrations than that of polyoxin D were given the values of 6, 7 and 8, respectively)	3 (Compounds having the inhibitory activity at 2-fold, 4-fold, 8-fold and 16-fold higher concentrations than that of polyoxin D were given the values of 4, 3, 2 and 1, respectively)
13-(3,4,5-Trifluorobenzyl)-9-O-butylberberrubine iodide [Compound No. 27]	6 (compounds having the inhibitory activity at ½, ¼ and ⅛ lower concentrations than that of polyoxin D were given the values of 6, 7 and 8, respectively)	3 (Compounds having the inhibitory activity at 2-fold, 4-fold, 8-fold and 16-fold higher concentrations than that of polyoxin D were given the values of 4, 3, 2 and 1, respectively)
COc1ccc2c(Cc3ccc(OC(F)(F)F)cc3)c3[n+](cc2c1OCc1ccc(C(C)(C)C)cc1)CCc1cc2c(cc1-3)OCO2.[Cl-] [Compound No. 67, 13-(4-Trifluoromethoxybenzyl)-9-O-(4-tert-butylbenzyl)berberrubine chloride]	5 (A compound having the same inhibitory activity as that of polyoxin D at the same concentration was given the value 5)	2 (Compounds having the inhibitory activity at 2-fold, 4-fold, 8-fold and 16-fold higher concentrations than that of polyoxin D were given the values of 4, 3, 2 and 1, respectively)
13-(3,4,5-Trifluorobenzyl)berberrubine [Compound No. 1]	3 (Compounds having the inhibitory activity at 2-fold, 4-fold, 8-fold and 16-fold higher concentrations than that of polyoxin D were given the values of 4, 3, 2 and 1, respectively)	1 (Compounds having the inhibitory activity at 2-fold, 4-fold, 8-fold and 16-fold higher concentrations than that of polyoxin D were given the values of 4, 3, 2 and 1, respectively)

From patent publication US7915276B2, “Berberrubine derivatives having antifungal activities” (priority 2006, dated 2011)
